Experimental data from patent publication US10155769B2, “Fused azaheterocyclic compounds and their use as AMPA receptor modulators” (Janssen Pharmaceutica NV, priority 2016, dated 2018).

Molecular target: GluA1o-γ8 (Homo sapiens (Human), UniProt P42261+Q8WXS5)
Assay: Calcium flux assay (FLIPR), inhibition of TARP γ8 dependent AMPA receptor activity
Assay type: cell-based
Conditions: HEK293 cells stably expressing GRIA1o-CACNG8 fusion construct; calcium flux following 15 μM glutamate; negative log of IC50 in molar
Source text: This assay was used to test compounds for their ability to inhibit TARP γ8 dependent AMPA receptor activity. The AMPA receptor is a non-selective cation channel activated by glutamate. Ionotropic glutamate receptors normally desensitize too rapidly to allow detectable calcium influx in a FLIPR assay (Strange et al. (2006). “Functional characterisation of homomeric ionotropic glutamate receptors GluR1-GluR6 in a fluorescence-based high throughput screening assay.” Comb Chem High Throughput Screen 9(2): 147-158). But, this desensitization is incomplete, and a substantial steady-state current remains in the sustained presence of glutamate (Cho et al. (2007). “Two families of TARP isoforms that have distinct effects on the kinetic properties of AMPA receptors and synaptic currents.” Neuron 55(6): 890-904).
An in vitro assay was used to determine the potency of test compounds as inhibitors of the glutamate response of the channel formed by GluA1o-γ8. To ensure a 1:1 stoichiometry of GluA1o and γ8 subunits in the expressed channel, a fusion of the cDNAs for GRIA1o and CACNG8 was used. Following Shi et al (2009) “The stoichiometry of AMPA receptors and TARPs varies by neuronal cell type.” Neuron 62(5): 633-640), the C-terminus of the cDNA for GRIA1o was fused to the N-terminus of the cDNA for γ8. The linker sequence was QQQQQQQQQQEFAT. Channels expressed with this construct appear to have similar properties to channels formed by co-expression of GRIA1o with an excess of CACNG8 (Shi et al. 2009). A clonal cell line in HEK293 cells stably expressing this construct, with a geneticin selection marker, was generated for use in this assay.
Cell expressing the GRIA1o-CACNG8 fusion construct were grown in a monolayer in 96- or 384-well microtiter plates. They were washed with assay buffer (135 mM NaCl, 4 mM KCl, 3 mM CaCl2, 1 mM MgCl2, 5 mM glucose, 10 mM HEPES, pH 7.4, 300 mOs) using a Biotek EL405 plate washer. The cells were then loaded with a calcium-sensitive dye (Calcium-5 or Calcium-6, Molecular Devices) and the test compounds at a range of concentrations. Calcium flux following the addition of 15 μM glutamate was monitored using a Molecular Devices FLIPR Tetra.
The fluorescence in each well was normalized to the fluorescence of negative and positive control wells. The negative control wells had no added compounds, and the positive control wells had been incubated with 10 μM CP465022 (a non-subtype-selective AMPA receptor antagonist) (Lazzaro et al. (2002). “Functional characterization of CP-465,022, a selective, noncompetitive AMPA receptor antagonist.” Neuropharmacology 42(2): 143-153). The responses to glutamate as functions of the test compound concentrations were fitted to a four-parameter logistic function. The fitted parameter corresponding to the midpoint was taken to be the potency of inhibition of the compound. The data in Table 4 below illustrates the observed potency for the compounds described herein. pIC50 refers to the negative log of the IC50 in molar.

GluA1o-γ8, sequence (P42261 other isoform, or with tags, fused parts or gaps): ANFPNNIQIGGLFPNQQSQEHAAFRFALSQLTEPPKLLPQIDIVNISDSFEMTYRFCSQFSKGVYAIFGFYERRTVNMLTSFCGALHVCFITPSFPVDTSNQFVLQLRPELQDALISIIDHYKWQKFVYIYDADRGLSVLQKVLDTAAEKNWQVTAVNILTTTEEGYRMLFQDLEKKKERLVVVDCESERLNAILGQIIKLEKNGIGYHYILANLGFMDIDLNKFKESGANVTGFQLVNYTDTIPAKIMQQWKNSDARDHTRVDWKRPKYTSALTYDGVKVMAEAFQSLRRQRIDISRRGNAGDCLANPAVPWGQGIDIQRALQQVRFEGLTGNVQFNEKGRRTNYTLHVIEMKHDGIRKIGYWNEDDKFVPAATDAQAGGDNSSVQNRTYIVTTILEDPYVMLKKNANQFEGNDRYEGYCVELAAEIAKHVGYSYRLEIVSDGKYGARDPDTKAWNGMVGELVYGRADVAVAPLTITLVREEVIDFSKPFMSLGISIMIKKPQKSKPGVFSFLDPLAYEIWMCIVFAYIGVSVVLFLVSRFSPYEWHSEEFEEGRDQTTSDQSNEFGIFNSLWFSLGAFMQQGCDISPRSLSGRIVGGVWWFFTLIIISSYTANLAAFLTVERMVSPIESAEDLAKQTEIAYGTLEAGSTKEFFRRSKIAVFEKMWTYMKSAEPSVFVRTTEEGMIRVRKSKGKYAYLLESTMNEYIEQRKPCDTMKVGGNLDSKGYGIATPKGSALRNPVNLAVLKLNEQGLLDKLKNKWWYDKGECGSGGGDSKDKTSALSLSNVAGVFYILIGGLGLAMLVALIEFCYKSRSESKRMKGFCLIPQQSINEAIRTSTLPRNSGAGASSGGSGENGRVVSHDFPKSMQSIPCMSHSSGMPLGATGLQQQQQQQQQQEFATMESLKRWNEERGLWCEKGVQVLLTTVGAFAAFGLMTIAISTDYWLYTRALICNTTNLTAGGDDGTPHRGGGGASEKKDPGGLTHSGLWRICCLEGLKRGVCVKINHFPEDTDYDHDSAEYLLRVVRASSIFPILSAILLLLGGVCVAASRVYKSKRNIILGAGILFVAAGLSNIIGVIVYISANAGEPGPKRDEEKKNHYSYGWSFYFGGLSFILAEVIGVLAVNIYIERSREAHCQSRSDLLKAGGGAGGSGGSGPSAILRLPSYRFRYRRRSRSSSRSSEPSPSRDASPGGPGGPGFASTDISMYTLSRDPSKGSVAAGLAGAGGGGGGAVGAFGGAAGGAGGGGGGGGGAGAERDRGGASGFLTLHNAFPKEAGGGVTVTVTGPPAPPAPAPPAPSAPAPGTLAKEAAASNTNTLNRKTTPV

SMILES	pIC50
Cc1cc(-c2c(C(F)(F)F)ccn3nc(C4CC4)nc23)cc2cn[nH]c12 [Example 31, 2-Cyclopropyl-8-(7-methyl-1H-indazol-5-yl)-7-(trifluoromethyl)-[1,2,4]triazolo[1,5-a]pyridine]	9.7
Cc1nc2c(-c3cc(Cl)c4[nH]ncc4c3)c(C(F)(F)F)ccn2n1 [Example 32, 8-(7-Chloro-1H-indazol-5-yl)-2-methyl-7-(trifluoromethyl)-[1,2,4]triazolo[1,5-a]pyridine]	8.3
Cc1nc2c(-c3cc(C)c4[nH]ncc4c3)c(C(F)(F)F)ccn2n1 [Example 33, 2-Methyl-8-(7-methyl-1H-indazol-5-yl)-7-(trifluoromethyl)-[1,2,4]triazolo[1,5-a]pyridine]	7.9
CCc1nc2c(-c3cc(Cl)c4[nH]ncc4c3)c(C(F)(F)F)ccn2n1 [Example 34, 8-(7-Chloro-1H-indazol-5-yl)-2-ethyl-7-(trifluoromethyl)-[1,2,4]triazolo[1,5-a]pyridine]	9.4
CCc1nc2c(-c3cc(C)c4[nH]ncc4c3)c(C(F)(F)F)ccn2n1 [Example 35, 2-Ethyl-8-(7-methyl-1H-indazol-5-yl)-7-(trifluoromethyl)-[1,2,4]triazolo[1,5-a]pyridine]	8.8
CCc1nc2c(-c3cc(C)c4c(c3)CC(=O)N4)c(C(F)(F)F)ccn2n1 [Example 36, 5-[2-Ethyl-7-(trifluoromethyl)-[1,2,4]triazolo[1,5-a]pyridin-8-yl]-7-methyl-indolin-2-one]	8.7
CC(C)c1nc2c(-c3cc(Cl)c4[nH]ncc4c3)c(C(F)(F)F)ccn2n1 [Example 37, 8-(7-Chloro-1H-indazol-5-yl)-2-isopropyl-7-(trifluoromethyl)-[1,2,4]triazolo[1,5-a]pyridine]	9.9
Cc1cc(-c2c(C(F)(F)F)ccn3nc(C(C)C)nc23)cc2cn[nH]c12 [Example 38, 2-Isopropyl-8-(7-methyl-1H-indazol-5-yl)-7-(trifluoromethyl)-[1,2,4]triazolo[1,5-a]pyridine]	8.7
Cc1cc(-c2c(C(F)(F)F)ccn3nc(C(C)C)nc23)cc2c1NC(=O)C2 [Example 39, 5-[2-Isopropyl-7-(trifluoromethyl)-[1,2,4]triazolo[1,5-a]pyridin-8-yl]-7-methyl-indolin-2-one]	9.2
FC(F)(F)c1nc2c(-c3cc(Cl)c4[nH]ncc4c3)c(Cl)ccn2n1 [Example 41, 7-Chloro-8-(7-chloro-1H-indazol-5-yl)-2-(trifluoromethyl)-[1,2,4]triazolo[1,5-a]pyridine]	9.0
Fc1ccc(-c2ccn3nc(C(F)(F)F)nc3c2-c2cc(F)c3[nH]ncc3c2)cc1 [Example 42, 7-(4-Fluorophenyl)-8-(7-fluoro-1H-indazol-5-yl)-2-(trifluoromethyl)-[1,2,4]triazolo[1,5-a]pyridine]	9.0
Fc1ccc(-c2ccn3nc(C(F)(F)F)nc3c2-c2cc(Cl)c3[nH]ncc3c2)cc1 [Example 43, 7-(4-Fluorophenyl)-8-(7-chloro-1H-indazol-5-yl)-2-(trifluoromethyl)-[1,2,4]triazolo[1,5-a]pyridine]	11.0
Cc1cc(-c2c(-c3ccc(F)cc3)ccn3nc(C(F)(F)F)nc23)cc2cn[nH]c12 [Example 44, 7-(4-Fluorophenyl)-8-(7-methyl-1H-indazol-5-yl)-2-(trifluoromethyl)-[1,2,4]triazolo[1,5-a]pyridine]	10.5
Fc1ccc(-c2ccn3nc(C(F)(F)F)nc3c2-c2ccc3[nH]nc(F)c3c2)cc1 [Example 45, 8-(3-Fluoro-1H-indazol-5-yl)-7-(4-fluorophenyl)-2-(trifluoromethyl)-[1,2,4]triazolo[1,5-a]pyridine]	7.6
Cc1cc(-c2c(-c3ccc(F)cc3)ccn3nc(C(F)F)nc23)cc2cn[nH]c12 [Example 46, 2-(Difluoromethyl)-7-(4-fluorophenyl)-8-(7-methyl-1H-indazol-5-yl)-[1,2,4]triazolo[1,5-a]pyridine]	10.5
Cc1cc(-c2c(-c3ccc(F)cc3)ccn3nc(C4CC4)nc23)cc2cn[nH]c12 [Example 48, 2-Cyclopropyl-7-(4-fluorophenyl)-8-(7-methyl-1H-indazol-5-yl)-[1,2,4]triazolo[1,5-a]pyridine]	10.1
Cc1cc(-c2c(C(C)C)ccn3nc(C(F)(F)F)nc23)cc2cn[nH]c12 [Example 49, 7-Isopropyl-8-(7-methyl-1H-indazol-5-yl)-2-(trifluoromethyl)-[1,2,4]triazolo[1,5-a]pyridine]	10.5
Cc1ccn2cc(C(F)(F)F)nc2c1-c1cc(F)c2c(c1)CC(=O)N2 [Example 51, 7-Fluoro-5-[7-methyl-2-(trifluoromethyl)imidazo[1,2-a]pyridin-8-yl]indolin-2-one]	7.2
Cc1cc(-c2c(C)ccn3cc(C(C)(C)C)nc23)cc2c1NC(=O)C2 [Example 54, 5-(2-tert-Butyl-7-methyl-imidazo[1,2-a]pyridin-8-yl)-7-methyl-indolin-2-one]	7.1
COc1ccn2cc(C(F)(F)F)nc2c1-c1cc(C)c2c(c1)CC(=O)N2 [Example 58, 5-[7-Methoxy-2-(trifluoromethyl)imidazo[1,2-a]pyridin-8-yl]-7-methyl-indolin-2-one]	7.8
FC(F)(F)c1cn2ccc(C(F)(F)F)c(-c3ccc4[nH]ncc4c3)c2n1 [Example 61, 5-(2,7-Bis(trifluoromethyl)imidazo[1,2-a]pyridin-8-yl)-1H-indazole]	7.5

Other lines, results leading:

pIC50	SMILES
6.9	Cc1ccn2nc(C(C)C)nc2c1-c1cc(C)c2[nH]ncc2c1 [Example 40, 2-Isopropyl-7-methyl-8-(7-methyl-1H-indazol-5-yl)-[1,2,4]triazolo[1,5-a]pyridine]
8.7	COCc1nc2c(-c3cc(C)c4[nH]ncc4c3)c(-c3ccc(F)cc3)ccn2n1 [Example 47, 7-(4-Fluorophenyl)-2-(methoxymethyl)-8-(7-methyl-1H-indazol-5-yl)-[1,2,4]triazolo[1,5-a]pyridine]
7.2	Cc1ccn2cc(C(F)(F)F)nc2c1-c1ccc2[nH]ncc2c1 [Example 50, 8-(1H-Indazol-5-yl)-7-methyl-2-(trifluoromethyl)imidazo[1,2-a]pyridine]
8.0	Cc1ccn2cc(C(F)(F)F)nc2c1-c1cc(C)c2[nH]ncc2c1 [Example 52, 7-Methyl-8-(7-methyl-1H-indazol-5-yl)-2-(trifluoromethyl)imidazo[1,2-a]pyridine]
7.5	Cc1ccn2cc(C(C)(C)C)nc2c1-c1cc(C)c2[nH]ncc2c1 [Example 53, 2-tert-Butyl-7-methyl-8-(7-methyl-1H-indazol-5-yl)imidazo[1,2-a]pyridine]
7.4	Cc1cc(-c2c(C)ccn3cc(-c4ccccc4)nc23)cc2c1NC(=O)C2 [Example 55, 7-Methyl-5-(7-methyl-2-phenyl-imidazo[1,2-a]pyridin-8-yl)indolin-2-one]
7.9	Cc1ccn2cc(-c3ccccc3)nc2c1-c1cc(C)c2[nH]ncc2c1 [Example 56, 7-Methyl-8-(7-methyl-1H-indazol-5-yl)-2-phenyl-imidazo[1,2-a]pyridine]
7.6	Cc1ccn2cc(C3CC3)nc2c1-c1cc(C)c2[nH]ncc2c1 [Example 57, 2-Cyclopropyl-7-methyl-8-(7-methyl-1H-indazol-5-yl)imidazo[1,2-a]pyridine]
8.1	COc1ccn2cc(C(F)(F)F)nc2c1-c1cc(C)c2[nH]ncc2c1 [Example 59, 7-Methoxy-8-(7-methyl-1H-indazol-5-yl)-2-(trifluoromethyl)imidazo[1,2-a]pyridine]
9.0	Cc1cc(-c2c(Cl)ccn3cc(C(F)(F)F)nc23)cc2cn[nH]c12 [Example 60, 7-Chloro-8-(7-methyl-1H-indazol-5-yl)-2-(trifluoromethyl)imidazo[1,2-a]pyridine]
9.5	Cc1cc(-c2c(C(F)(F)F)ccn3cc(C(F)(F)F)nc23)cc2cn[nH]c12 [Example 62, 5-(2,7-Bis(trifluoromethyl)imidazo[1,2-a]pyridin-8-yl)-7-methyl-1H-indazole]
